Laboratory results from US9771353B2, “Kinase inhibitors based upon N-alkyl pyrazoles” (RESPIVERT LIMITED, priority 2013, dated 2017).

Columns and labels:
c-Src = c-Src (Homo sapiens (Human), UniProt P12931); assay: c-Src enzyme inhibition (FRET, Z-LYTE); type: biochemical
Experimental: (§1) The enzyme inhibitory activities of compounds disclosed herein are determined by FRET using synthetic peptides labelled with both donor and acceptor fluorophores (Z-LYTE, Invitrogen Ltd., Paisley, UK).
(§2) The relevant enzyme (3000 ng/mL or 2000 ng/mL respectively, 2.5 μL) is incubated with the test compound (either 4 μg/mL, 0.4 μg/mL, 0.04 μg/mL, or 0.004 μg/mL, 2.5 μL each) for 2 hr at RT. The FRET peptides (8 μM, 2.5 μL), and appropriate ATP solutions (2.5 μL, 800 μM for c-Src, and 60 μM ATP for Syk) are then added to the enzymes/compound mixtures and incubated for 1 hr. Development reagent (protease, 5 μL) is added for 1 hr prior to detection in a fluorescence microplate reader (Varioskan® Flash, ThermoFisher Scientific).
(§3) In all cases, the site-specific protease cleaves non-phosphorylated peptide only and eliminates the FRET signal. Phosphorylation levels of each reaction are calculated using the ratio of coumarin emission (donor) over fluorescein emission (acceptor), for which high ratios indicate high phosphorylation and low ratios indicate low phosphorylation levels.

PBMCs [1] = assay: IL-2 and IFN gamma release in CD3/CD28 stimulated PBMC cells, assay (c); type: cell-based; details: Homo sapiens, IFNγ, read-out: IC50 Values for Inhibition of Cytokine Release, PBMCs IFNγ
Experimental: PBMCs from healthy subjects are separated from whole blood using a density gradient (Lymphoprep, Axis-Shield Healthcare). Cells are added to a 96 well plate pre-coated with a mixture of CD3/CD28 monoclonal antibodies (0.3 μg/mL eBioscience and 3 μg/mL BD Pharmingen respectively). Compound at the desired concentration is then added to the wells and the plate left for 3 days under normal tissue culture conditions. Supernatants are harvested and IL-2 and IFN gamma release determined by Sandwich ELISA (Duo-set, R&D System). The IC50 is determined from the dose response curve.

Syk = Syk (Homo sapiens (Human), UniProt P43405); assay: Syk enzyme inhibition (FRET, Z-LYTE); type: biochemical
Experimental: as §1
as §2, with “The inhibitory activities of compounds of the invention against c-Src and Syk enzymes (Invitrogen), are evaluated in a similar fashion to that described hereinabove. The relevant” for “The relevant”
as §3

d-U937 cells = assay: Accumulation of β catenin in d-U937 cells, assay (m); type: cell-based, human
Experimental: U937 cells, a human monocytic cell line, are differentiated into macrophage-type cells by incubation with PMA; (100 ng/mL) for between 48 to 72 hr. The cells are then incubated with either final concentrations of test compound or vehicle for 18 hr. The induction of β-catenin by the test compounds is stopped by replacing the media with 4% formaldehyde solution. Endogenous peroxide activity is neutralised by incubating with quenching buffer (100 μL, 0.1% sodium azide, 1% H2O2 in PBS with 0.05% Tween-20) for 20 min. The cells are washed with washing buffer (200 μL; PBS containing 0.05% Tween-20) and incubated with blocking solution (200 μL; 5% milk in PBS) for 1 hr, re-washed with washing buffer (200 μL) and then incubated overnight with anti-β-catenin antibody solution (50 μL) in 1% BSA/PBS (BD, Oxford, UK).
After washing with washing buffer (3×200 μL; PBS containing 0.05% Tween-20), cells are incubated with an HRP-conjugated secondary antibody solution (100 μL) in 1% BSA/PBS (Dako, Cambridge, UK) and the resultant signal is determined colourimetrically (OD: 450 nm with a reference wavelength of 655 nm) using TMB substrate (50 μL; R&D Systems, Abingdon, UK). This reaction is stopped by addition of 1N H2SO4 solution (50 μL). Cells are then washed with washing buffer and 2% crystal violet solution (50 μL) is applied for 30 min. After washing with washing buffer (3×200 μL), 1% SDS (100 μL) is added to each well and the plates are shaken lightly for 1 hr prior to measuring the absorbance at 595 nm (Varioskan® Flash, Thermo-Fisher Scientific).
The measured OD450-655 readings are corrected for cell number by dividing the OD450-655 by the OD595 readings. The percentage induction for each well is calculated relative to vehicle, and the ratio of induction normalised in comparison with the induction produced by a standard control comprising of N-(4-(4-(3-(3-tert-butyl-1-p-tolyl-1H-pyrazol-5-yl)ureido)naphthalen-1-yloxy)pyridin-2-yl)-2-methoxyacetamide (1 μg/mL) which is defined as 100%.

p38 MAPKα = p38 MAPKα (Homo sapiens (Human), UniProt Q16539); assay: p38 MAPKα enzyme inhibition (FRET, Z-LYTE), Method 2; type: biochemical
p38 MAPKα, sequence (Q16539 whole entry): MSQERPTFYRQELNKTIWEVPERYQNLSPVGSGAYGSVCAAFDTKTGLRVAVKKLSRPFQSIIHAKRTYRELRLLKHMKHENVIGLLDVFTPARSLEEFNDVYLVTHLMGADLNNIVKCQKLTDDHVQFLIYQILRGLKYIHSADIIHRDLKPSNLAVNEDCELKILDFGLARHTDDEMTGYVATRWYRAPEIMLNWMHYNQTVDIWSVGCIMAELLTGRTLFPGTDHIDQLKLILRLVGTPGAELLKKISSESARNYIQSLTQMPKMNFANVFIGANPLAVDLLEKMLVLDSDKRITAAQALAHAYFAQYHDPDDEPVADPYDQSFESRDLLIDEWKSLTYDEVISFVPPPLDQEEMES

HT29 cells = assay: IL-1β-induced IL-8 release in HT29 cells, assay (d); type: cell-based; details: Homo sapiens, HT-29, IL-1β-stimulated HT29 cells, read-out: IC50 Values for Inhibition of Cytokine Release, HT29 cells IL-8
Experimental: HT29 cells, a human colon adenocarcinoma cell line, are plated in a 96 well plate (24 hrs) and pre-treated with compounds at the desired concentration for 2 hours before addition of 5 ng/mL of IL-1β (Abcam) for 24 hours. Supernatants are harvested for IL-8 quantification by Sandwich ELISA (Duo-set, R&D System). The IC50 is determined from the dose response curve.

PBMCs [2] = assay: LPS-induced TNFα/IL-8 release in PBMC cells, assay (b); type: cell-based; details: Homo sapiens, LPS-stimulated PBMCs, read-out: IC50 Values for Inhibition of Cytokine Release, PBMCs IL-8
Experimental: Peripheral blood mononuclear cells (PBMCs) from healthy subjects are separated from whole blood using a density gradient (Lymphoprep, Axis-Shield Healthcare). The PBMCs are seeded in 96 well plates and treated with compounds at the desired concentration for 2 hours before addition of 1 ng/mL LPS (Escherichia Coli 0111:B4 from Sigma Aldrich) for 24 hours under normal tissue culture conditions (37° C., 5% CO2). The supernatant is harvested for determination of IL-8 and TNFα concentrations by sandwich ELISA (Duo-set, R&D systems) and read on the fluorescence microplate reader (Varioskan® Flash, ThermoFisher Scientific).

GSK3α = GSK3α (Homo sapiens (Human), UniProt P49840); assay: GSK 3α enzyme inhibition (FRET, Z-LYTE), Method 2; type: biochemical
GSK3α, sequence (P49840 whole entry): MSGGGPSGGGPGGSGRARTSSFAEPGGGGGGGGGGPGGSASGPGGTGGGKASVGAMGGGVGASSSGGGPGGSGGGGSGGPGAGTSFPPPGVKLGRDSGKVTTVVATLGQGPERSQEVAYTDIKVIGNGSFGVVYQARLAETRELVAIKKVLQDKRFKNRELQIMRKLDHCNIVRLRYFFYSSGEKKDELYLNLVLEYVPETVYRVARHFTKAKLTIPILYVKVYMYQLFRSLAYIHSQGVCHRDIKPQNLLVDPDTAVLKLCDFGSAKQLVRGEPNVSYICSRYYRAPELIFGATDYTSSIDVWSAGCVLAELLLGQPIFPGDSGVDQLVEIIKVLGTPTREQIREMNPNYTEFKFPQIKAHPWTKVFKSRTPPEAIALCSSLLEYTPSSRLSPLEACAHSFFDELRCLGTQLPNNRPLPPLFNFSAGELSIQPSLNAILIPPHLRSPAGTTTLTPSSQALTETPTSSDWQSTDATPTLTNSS
Experimental: as §1
The inhibitory activities of compounds of the invention against the GSK 3α enzyme isoform (Invitrogen), are evaluated by determining the level of activation/phosphorylation of the target peptide. The GSK3-α protein (500 ng/mL, 2.5 μL) is mixed with the test compound (2.5 μL at either 4 μg/mL, 0.4 μg/mL, 0.04 μg/mL, or 0.004 μg/mL) for 2 hr at RT. The FRET peptide (8 μM, 2.5 μL), which is a phosphorylation target for GSK3α, and ATP (40 μM, 2.5 μL) are then added to the enzyme/compound mixture and the resulting mixture incubated for 1 hr. Development reagent (protease, 5 μL) is added for 1 hr prior to detection in a fluorescence microplate reader (Varioskan® Flash, ThermoFisher Scientific).
as §3
This method follows the same steps as Method 1 above, but utilises a shorter period of mixing of the test compound (105 minutes instead of 2 hours) with the GSK3-α protein.

[3] = 1 μg/mL test compound, normalised to reference N-(4-(4-(3-(3-tert-butyl-1-p-tolyl-1H-pyrazol-5-yl)ureido)naphthalen-1-yloxy)pyridin-2-yl)-2-methoxyacetamide
[4] = 5 μg/mL test compound, normalised to the same reference compound
[5] = 10 μg/mL test compound, normalised to the same reference compound

c-Src, sequence (P12931 whole entry, looked up): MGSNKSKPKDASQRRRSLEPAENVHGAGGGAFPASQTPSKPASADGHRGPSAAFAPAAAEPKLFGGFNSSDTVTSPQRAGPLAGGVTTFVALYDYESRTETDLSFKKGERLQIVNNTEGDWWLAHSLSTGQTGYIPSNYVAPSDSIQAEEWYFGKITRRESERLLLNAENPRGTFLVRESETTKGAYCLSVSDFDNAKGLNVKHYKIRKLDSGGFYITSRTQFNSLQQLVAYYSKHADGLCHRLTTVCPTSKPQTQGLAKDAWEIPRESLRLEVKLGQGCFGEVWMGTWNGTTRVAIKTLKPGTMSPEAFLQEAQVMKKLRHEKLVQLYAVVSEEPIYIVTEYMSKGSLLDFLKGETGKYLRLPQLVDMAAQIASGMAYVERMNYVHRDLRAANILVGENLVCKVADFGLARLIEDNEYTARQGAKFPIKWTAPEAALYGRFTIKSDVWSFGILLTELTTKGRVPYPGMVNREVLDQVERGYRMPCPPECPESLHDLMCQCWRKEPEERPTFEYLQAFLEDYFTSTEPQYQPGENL

C#Cc1cc(Nc2cc(Oc3ccc(NC(=O)Nc4cc(C(C)(C)C)nn4C)c4ccccc34)ccn2)cc(C(=O)NCCOCCOCCOC)c1 [Example 9, 3-((4-((4-(3-(3-(tert-Butyl)-1-methyl-1H-pyrazol-5-yl)ureido)naphthalen-1-yl)oxy)pyridin-2-yl)amino)-5-ethynyl-N-(2-(2-(2-methoxyethoxy)ethoxy)ethyl)benzamide]
IC50 (c-Src): 53 nM | IC50 (PBMCs [1]): 33.7 nM | IC50 (Syk): > 1000 nM | % β-catenin induction (d-U937 cells; [3]): −2.5% | % β-catenin induction (d-U937 cells; [4]): −1% | % β-catenin induction (d-U937 cells; [5]): 4.5% | IC50 (p38 MAPKα): 66 nM | IC50 (HT29 cells): 18 nM | IC50 (PBMCs [2]): 3.8 nM | IC50 (GSK3α): 12400 nM

C#Cc1cc(Nc2nccc(Oc3ccc(NC(=O)Nc4cc(C(C)C)nn4C)c4ccccc34)n2)cc(C(=O)NCCOCCOCCOC)c1 [Example 11, 3-Ethynyl-5-((4-((4-(3-(3-isopropyl-1-methyl-1H-pyrazol-5-yl)ureido)naphthalen-1-yl)oxy)pyrimidin-2-yl)amino)-N-(2-(2-(2-methoxyethoxy)ethoxy)ethyl)benzamide]
IC50 (c-Src): 9 nM | IC50 (Syk): > 1000 nM | IC50 (p38 MAPKα): 13 nM | IC50 (HT29 cells): > 1000 nM | IC50 (PBMCs [2]): 26.1 nM | IC50 (GSK3α): 9520 nM

C#Cc1cc(Nc2nccc(Oc3ccc(NC(=O)Nc4cc(C(C)(C)C)nn4CC)c4ccccc34)n2)cc(C(=O)NCCOCCOCCOC)c1 [Example 8, 3-((4-((4-(3-(3-(tert-Butyl)-1-ethyl-1H-pyrazol-5-yl)ureido)naphthalen-1-yl)oxy)pyrimidin-2-yl)amino)-5-ethynyl-N-(2-(2-(2-methoxyethoxy)ethoxy)ethyl)benzamide]
IC50 (c-Src): 5 nM | IC50 (PBMCs [1]): 13.2 nM | IC50 (Syk): > 1000 nM | % β-catenin induction (d-U937 cells; [3]): 2.5% | % β-catenin induction (d-U937 cells; [4]): 4% | % β-catenin induction (d-U937 cells; [5]): 3.5% | IC50 (p38 MAPKα): 20 nM | IC50 (PBMCs [2]): 4.8 nM | IC50 (GSK3α): 3070 nM

C#Cc1cc(Nc2nccc(Oc3ccc(NC(=O)Nc4cc(C(C)C)nn4C)c4ccccc34)n2)cc(C(=O)NCCN2CCOCC2)c1 [Example 10, 3-Ethynyl-5-((4-((4-(3-(3-isopropyl-1-methyl-1H-pyrazol-5-yl)ureido)naphthalen-1-yl)oxy)pyrimidin-2-yl)amino)-N-(2-morpholinoethyl)benzamide]
IC50 (c-Src): 8 nM | IC50 (Syk): 819 nM | IC50 (p38 MAPKα): 9 nM | IC50 (HT29 cells): 270 nM | IC50 (PBMCs [2]): 15.6 nM | IC50 (GSK3α): 14100 nM
